Measured values from the supplement of paper PMC10307832.

Experiments:
Test in all cases: relative viability (nuclei count vs DMSO), 5 days (fraction); higher = more cells survive
HCC-44 = system: HCC-44
In short: (§1)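 After 5 days of treatment, lung cancer cells in 1536-well plates were fixed and stained in a single step (final 0.05% Triton X-100, 1% formaldehyde, 1 ug/ml Hoechst) and their nuclei counted on 4× images. Treatment had been applied by pin tool the day after seeding as one drug alone or as a fixed anchor-drug dose with five library-drug doses (not always all listed) in √10 steps. Relative viability is the nuclei count of treated wells divided by that of vehicle wells, and values are medians of duplicate plates.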

LCLC-103H = system: LCLC-103H
In short: as §1

NCI-H727 = system: NCI-H727
In short: as §1

NCI-H1944 = system: NCI-H1944
In short: as §1

SK-LU-1 = system: SK-LU-1
In short: as §1

HCC-366 = system: HCC-366
In short: as §1

HCC-827 = system: HCC-827
In short: as §1

HCC-15 = system: HCC-15
In short: as §1

HARA = system: HARA
In short: as §1

COR-L23 = system: COR-L23
In short: as §1

NCI-H358 = system: NCI-H358
In short: as §1

Q: `O=c1[nH]c2ccccc2n1C1CCN(CCCC(c2ccc(F)cc2)c2ccc(F)cc2)CC1` [Pimozide] + Cc1cc(Nc2cc(N3CCN(C)CC3)nc(Sc3ccc(NC(=O)C4CC4)cc3)n2)n[nH]1 [Tozasertib] (partner 0.1 µM) was tested. Which relative viability (HCC-44; first compound 0.08 µM) did it give?
A: 1.16

Q: And the relative viability (HCC-44; first compound 0.253 µM)?
A: 0.918

Q: What about the relative viability (HCC-44; first compound 0.8 µM) of the same molecule?
A: 0.811

Q: And the relative viability (HCC-44; first compound 2.53 µM)?
A: 0.499

Q: And the relative viability (HCC-44; first compound 8 µM)?
A: 0.983

Q: And the relative viability (LCLC-103H; first compound 0.08 µM)?
A: 0.353

Q: What about the relative viability (LCLC-103H; first compound 0.253 µM) of the same molecule?
A: 0.409

Q: What about the relative viability (LCLC-103H; first compound 0.8 µM) of the same molecule?
A: 0.361

Q: And the relative viability (LCLC-103H; first compound 2.53 µM)?
A: 0.422

Q: And the relative viability (LCLC-103H; first compound 8 µM)?
A: 0.446

Q: And the relative viability (NCI-H727; first compound 0.08 µM)?
A: 0.734

Q: What about the relative viability (NCI-H727; first compound 0.253 µM) of the same molecule?
A: 0.694

Q: What about the relative viability (NCI-H727; first compound 0.8 µM) of the same molecule?
A: 0.509

Q: And the relative viability (NCI-H727; first compound 2.53 µM)?
A: 0.65

Q: And the relative viability (NCI-H727; first compound 8 µM)?
A: 0.496

Q: What about the relative viability (NCI-H1944; first compound 0.08 µM) of the same molecule?
A: 0.251

Q: And the relative viability (NCI-H1944; first compound 0.253 µM)?
A: 0.241

Q: And the relative viability (NCI-H1944; first compound 0.8 µM)?
A: 0.242

Q: And the relative viability (NCI-H1944; first compound 2.53 µM)?
A: 0.217

Q: What about the relative viability (NCI-H1944; first compound 8 µM) of the same molecule?
A: 0.23

Q: And the relative viability (SK-LU-1; first compound 0.08 µM)?
A: 0.326

Q: What about the relative viability (SK-LU-1; first compound 0.253 µM) of the same molecule?
A: 0.323

Q: And the relative viability (SK-LU-1; first compound 0.8 µM)?
A: 0.328

Q: What about the relative viability (SK-LU-1; first compound 2.53 µM) of the same molecule?
A: 0.29

Q: And the relative viability (SK-LU-1; first compound 8 µM)?
A: 0.299

Q: And the relative viability (HCC-366; first compound 0.08 µM)?
A: 0.079

Q: And the relative viability (HCC-366; first compound 0.253 µM)?
A: 0.0803

Q: And the relative viability (HCC-366; first compound 0.8 µM)?
A: 0.142

Q: What about the relative viability (HCC-366; first compound 2.53 µM) of the same molecule?
A: 0.0868

Q: What about the relative viability (HCC-366; first compound 8 µM) of the same molecule?
A: 0.0997

Q: And the relative viability (HCC-827; first compound 0.253 µM)?
A: 0.387

Q: What about the relative viability (HCC-827; first compound 0.8 µM) of the same molecule?
A: 0.368

Q: And the relative viability (HCC-827; first compound 2.53 µM)?
A: 0.385

Q: What about the relative viability (HCC-827; first compound 8 µM) of the same molecule?
A: 0.405

Q: What about the relative viability (HCC-15; first compound 0.08 µM) of the same molecule?
A: 0.403

Q: What about the relative viability (HCC-15; first compound 0.253 µM) of the same molecule?
A: 0.365

Q: And the relative viability (HCC-15; first compound 0.8 µM)?
A: 0.322

Q: And the relative viability (HCC-15; first compound 2.53 µM)?
A: 0.292

Q: What about the relative viability (HCC-15; first compound 8 µM) of the same molecule?
A: 0.201

Q: And the relative viability (HARA; first compound 0.253 µM)?
A: 0.107

Q: And the relative viability (HARA; first compound 0.8 µM)?
A: 0.111

Q: And the relative viability (HARA; first compound 2.53 µM)?
A: 0.0907

Q: What about the relative viability (HARA; first compound 8 µM) of the same molecule?
A: 0.123

Q: What about the relative viability (COR-L23; first compound 0.08 µM) of the same molecule?
A: 0.194

Q: What about the relative viability (COR-L23; first compound 0.253 µM) of the same molecule?
A: 0.183

Q: What about the relative viability (COR-L23; first compound 0.8 µM) of the same molecule?
A: 0.191

Q: And the relative viability (COR-L23; first compound 2.53 µM)?
A: 0.153

Q: What about the relative viability (COR-L23; first compound 8 µM) of the same molecule?
A: 0.185

Q: And the relative viability (NCI-H358; first compound 0.08 µM)?
A: 0.0997

Q: What about the relative viability (NCI-H358; first compound 0.253 µM) of the same molecule?
A: 0.11

Q: And the relative viability (NCI-H358; first compound 0.8 µM)?
A: 0.112

Q: And the relative viability (NCI-H358; first compound 2.53 µM)?
A: 0.108

Q: What about the relative viability (NCI-H358; first compound 8 µM) of the same molecule?
A: 0.106
